Measurements as given in patent US20230202989A1, “COMPOUNDS” (JANSSEN PHARMACEUTICA NV, priority 2020, published 2023).

Tests used:
IL-1β = test: PBMC assay: inhibition of IL-1β release after LPS stimulation (MSD); type: cell-based; details: Homo sapiens, PBMC, 6 h, human PBMCs, 100 ng/ml LPS for 6 hrs, MSD, 96 well plates; read-out: IL1β IC50
Outline: (§1)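 TNF (EC50) and IL-1β (IC50) were quantified by MSD in supernatants after 6 h stimulation with 100 ng/ml LPS. Thawed healthy-donor PBMCs, 7.5×10^4 per well, were exposed to 1:3 compound dilutions for 30 min beforehand at 37 °C.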

TNF = test: PBMC assay: TNF cytokine levels after LPS stimulation (MSD); type: cell-based; details: Homo sapiens, PBMC, 6 h, human PBMCs, 100 ng/ml LPS for 6 hrs
Outline: as §1

Row | Compound | IC50 (IL-1β) [µM] | EC50 (TNF) [µM]
1 | CC(=O)N1C[C@H](O)C[C@@H](NC(=O)Cn2nc(C(C)C)c3cc(C(F)(F)F)ccc3c2=O)C1 (single isomer, unassigned) [Final Cpd X138] | 4.02 | > 20
2 | CC(C)c1nn(CC(=O)N[C@H]2CC[C@@](C)(O)CC2)c(=O)c2ccc(C(F)(F)F)cc12 [Final Cpd X46] | 0.388 | > 20
3 | CC(C)c1nn(CC(=O)Nc2ccc3cnn(C(F)F)c3c2)c(=O)c2ccc(Br)cc12 [X-1034] | 3.01 | > 20
4 | CC(C)c1nn(CC(=O)Nc2ccc3cnn(C)c3c2)c(=O)c2ccc(C(F)(F)F)cc12 [Final Cpd X114] | 1.94 | > 20
5 | COC(C)c1ccc2c(=O)n(CC(=O)Nc3ccncn3)nc(C(C)C)c2c1 (stereo not shown) [X-1056] | 1.61 | 14
6 | CC(C)c1nn(CC(=O)Nc2ccc3nncn3n2)c(=O)c2ccc(C(C)(C)C)cc12 [X-1051] | 0.106 | 7.02
7 | C[C@]1(O)C[C@@H](NC(=O)Cn2nc(C(F)F)c3cc(C(F)(F)F)ccc3c2=O)C1 [Final Cpd X36] | 0.304 | > 20
8 | CC(C)c1nn(CC(=O)N[C@@H]2C[C@H](O)CN(C)C2)c(=O)c2ccc(C(F)(F)F)cc12 (single isomer, unassigned) [Final Cpd X130] | 3.08 | > 20
9 | CC(C)c1nn(CC(=O)N[C@H]2C[C@@](C)(O)C2)c(=O)c2ccc(C#N)cc12 [X-1060] | 1.74 | > 20
10 | CC(C)c1nn(CC(=O)Nc2nc(Cl)c3ncn(C)c3n2)c(=O)c2ccc(C(F)(F)F)cc12 [Final Cpd X96] | 1.11 | > 20
11 | COC(C)c1nn(CC(=O)Nc2ccnnc2)c(=O)c2ccc(Br)cc12 (stereo not shown) [X-1015] | 2.13 | > 20
12 | CCN1C[C@@H](F)C[C@H](NC(=O)Cn2nc(C(C)C)c3cc(C(F)(F)F)ccc3c2=O)C1 (single isomer, unassigned) [Final Cpd X153] | 7.63 | > 20
13 | Cc1cc2nccn2cc1NC(=O)Cn1nc(C(C)C)c2cc(C(F)(F)F)ccc2c1=O [Final Cpd X167] | 17.8 | > 20
14 | CC(=O)N1C[C@@H](O)C[C@@H](NC(=O)Cn2nc(C(C)C)c3cc(C(F)(F)F)ccc3c2=O)C1 (single isomer, unassigned) [Final Cpd X164] | 15.3 | > 20
15 | CC(C)c1nn(CC(=O)Nc2ccc3nncn3c2)c(=O)c2ccc(C(F)(F)F)cc12 [Final Cpd 8] | 0.076 | 13.7
16 | CCN1CC[C@H](O)[C@H](NC(=O)Cn2nc(C(C)C)c3cc(Br)ccc3c2=O)C1 (stereo in doubt) [X-1083] | 0.018 | > 20
17 | CC(C)c1nn(CC(=O)Nc2ccc(=O)n(C)n2)c(=O)c2ccc(Br)cc12 [X-1036] | 0.141 | > 20
18 | CCN1CC[C@@H](NC(=O)Cn2nc(C(C)C)c3cc(C(F)(F)F)ccc3c2=O)[C@@H](O)C1 (single isomer, unassigned) [Final Cpd X139] | 4.28 | > 20
19 | CC(=O)c1nn(CC(=O)Nc2ccn(C(C)C)n2)c(=O)c2ccc(Br)cc12 [X-1014, 2-(4-acetyl-6-bromo-1-oxophthalazin-2(1H)-yl)-N-(1-isopropyl-1H-pyrazol-3-yl)acetamide] | > 20 | > 20
20 | CCc1nn(CC(=O)Nc2ccn(C(C)C)n2)c(=O)c2ccc(C3CC3)cc12 [X-1026] | > 20 | > 20
21 | CC(C)c1nn(CC(=O)Nc2ccc3nncn3c2)c(=O)c2ccc(C3CCC3)cc12 [X-1078] | 1.31 | > 20
22 | CC(C)c1nn(CC(=O)Nc2ccc(C3CC3)nn2)c(=O)c2ccc(C(F)(F)F)cc12 [Final Cpd X179] | > 20 | > 20
23 | C[C@]1(O)C[C@@H](NC(=O)Cn2nc(C3CC3)c3cc(Cl)ccc3c2=O)C1 [X-1070] | 0.406 | > 20
